“And” between values parts separate entries of the source, which are not always exact repeats. Equal entries are not always repeated.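 These data come from cells grown in 96-well plates and exposed to compound for 48 hours at five concentrations. GI50 = concentration required for 50% inhibition of growth. TGI: concentration producing complete growth inhibition.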 A value given as a limit tells only on which side of the number the result lay.

Holding throughout (assay): NCI tumour cell line growth inhibition, 48 h
The test system of assay [1] is CCRF-CEM leukemia.
In assay [2] the test system is HCT-116 colon.
Assay [3] concerns LOX IMVI melanoma.
The subject of assay [4] is M19-MEL melanoma.
Assay [5] has as its system NCI-H460 lung.
In assay [6] the test system is OVCAR-8 ovarian.
In assay [7] the test system is SK-MEL-28 melanoma.
The subject of assay [8] is SNB-78 CNS.
For assay [9], the system named is U251 CNS.
In assay [10] the test system is UACC-62 melanoma.

Take `COc1ccc(-c2cc(-c3cc(C)ccc3O)[nH]c(=O)n2)cc1`: the TGI in assay [1], in assay [2], in assay [3], in [4], in [5] and in assay [6] was above 100 µM in each case. In addition, the TGI in [7], in assay [8], in assay [9] and in [10] was above 100 µM in each case.
`OCC1OC(n2cnc3c2NC=NC[C@H]3O)CC1O` (stereo partly drawn): the GI50 in assay [1], in assay [2], in assay [4], in assay [5], in assay [7] and in [8] was above 588 µM each time. Also, the GI50 in assay [9] and in [10] was above 588 µM in each case. Also, the TGI in assay [1] was 492 µM and > 588 µM; in [2], 500 µM and > 588 µM; in assay [3], 500 µM; in [4] it was 460 µM and > 588 µM; in assay [5], 480 µM and > 588 µM; in [6], 500 µM. Moreover, the TGI in assay [7] is 500 µM and > 588 µM; in assay [8], 500 µM and > 588 µM; in assay [9] it was 500 µM and > 588 µM; in [10], 461 µM and > 588 µM.
